In patent US11612599B2, “Glycosidase inhibitors” (Asceneuron SA, priority 2016, dated 2023) one finds IC50 data, which are given here for 6 compounds.

This assay deals with Human O-GlcNAcase (His-Tagged hOGA) (Homo sapiens (Human), UniProt O60502). Description: Human O-GlcNAcase enzyme inhibition assay. In kind it is biochemical. To be noted: OGA enzyme inhibition assay; activity range classes defined in μM.
Human O-GlcNAcase (His-Tagged hOGA), sequence (O60502 whole entry): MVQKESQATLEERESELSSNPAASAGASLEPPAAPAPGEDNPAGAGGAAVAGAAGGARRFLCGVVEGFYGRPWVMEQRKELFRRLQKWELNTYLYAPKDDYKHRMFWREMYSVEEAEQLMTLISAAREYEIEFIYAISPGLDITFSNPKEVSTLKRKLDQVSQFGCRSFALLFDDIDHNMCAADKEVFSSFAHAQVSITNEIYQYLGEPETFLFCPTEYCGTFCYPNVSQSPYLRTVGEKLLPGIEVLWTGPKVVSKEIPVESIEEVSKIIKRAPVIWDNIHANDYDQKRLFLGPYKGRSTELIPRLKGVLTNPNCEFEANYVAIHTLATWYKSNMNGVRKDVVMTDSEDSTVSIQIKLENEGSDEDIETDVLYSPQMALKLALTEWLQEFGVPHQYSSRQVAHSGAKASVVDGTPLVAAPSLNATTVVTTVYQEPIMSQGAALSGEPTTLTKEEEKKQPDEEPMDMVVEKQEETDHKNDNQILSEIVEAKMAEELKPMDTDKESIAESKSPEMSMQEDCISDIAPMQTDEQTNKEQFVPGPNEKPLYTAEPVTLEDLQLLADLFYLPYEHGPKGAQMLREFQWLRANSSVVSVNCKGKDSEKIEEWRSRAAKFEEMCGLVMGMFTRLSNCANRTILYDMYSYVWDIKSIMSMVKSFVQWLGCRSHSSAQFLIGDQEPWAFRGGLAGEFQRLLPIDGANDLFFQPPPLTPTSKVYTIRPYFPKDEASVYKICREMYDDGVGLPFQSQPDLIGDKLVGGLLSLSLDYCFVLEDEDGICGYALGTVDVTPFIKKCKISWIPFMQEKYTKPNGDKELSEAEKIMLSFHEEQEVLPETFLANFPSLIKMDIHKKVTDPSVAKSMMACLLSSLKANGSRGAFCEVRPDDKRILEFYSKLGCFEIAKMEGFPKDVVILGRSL
Description: Then, 20 nM of His-Tagged hOGA and 10 μM of FL-GlcNAc (Fluorescein mono-beta-D-(2-deoxy-2-N-acetyl) glucopyranoside; Marker Gene Technologies Inc, M1485) were added to the 384-well plate for a final volume of 20 μl.
As for `CC(c1ccc2nccnc2c1)N1CCN(c2ccc3c(c2)C(=O)NC3)CC1` (racemic) [Example 4, 6-(4-(1-(quinoxalin-6-yl)ethyl)piperazin-1-yl)isoindolin-1-one], the IC50 (as a rule, the point on the concentration scale where inhibition reaches its midpoint) is 0.05 to 0.2 µM.
Turning to `CC(c1ccc2c(c1)OCC2)N1CCN(c2ccc3c(c2)C(=O)NC3)CC1` (racemic) [Example 2, 6-(4-(1-(2,3-dihydrobenzofuran-6-yl)ethyl)piperazin-1-yl)isoindolin-1-one], the IC50 was under 0.05 µM.
As to `C[C@H](c1ccc2c(c1)OCC2)N1CCN(c2nc3c(s2)CNCC3)CC1` (single isomer, unassigned) [Example 18], the concentration for half-maximal inhibition (IC50) was in the range of 1 to 10 µM.
The value for `Cc1ncc2ccc(N3CCN(C(C)c4ccc5c(c4)OCC5)CC3)cn12` (racemic) [Example 1, 6-(4-(1-(2,3-dihydrobenzofuran-6-yl)ethyl)piperazin-1-yl)-3-methylimidazo[1,5-a]pyridine] was under 0.05 µM.
The value for `CC(c1ccc2c(c1)OCC2)N1CCN(c2nc3c(s2)C(=O)NCC3)CC1` (racemic) [Example 12, 2-(4-(1-(2,3-dihydrobenzofuran-6-yl)ethyl)piperazin-1-yl)-6,7-dihydrothiazolo[5,4-c]pyridin-4(5H)-one] was under 0.05 µM.
Turning to `CC(c1ccc2c(c1)OCC2)N1CCN(c2cc3c(cn2)NC(=O)CO3)CC1` (racemic) [Example 3, 7-(4-(1-(2,3-dihydrobenzofuran-6-yl)ethyl)piperazin-1-yl)-2H-pyrido[4,3-b][1,4]oxazin-3(4H)-one], the IC50 was under 0.05 µM.
